The structures appear in SMILES notation.

This series can be described thus: Octanol-water partition coefficient, log P of the compound.
As to `CCC#N` [PROPIONITRILE], the logP (commonly the decadic logarithm of the partition coefficient of the neutral form, usually between octanol and water) was found to be 0.16. Compound `CCC(C)=O` [BUTANONE] yielded a log partition coefficient (logP) of 0.29.

`OC1CCCCC1` [CYCLOHEXANOL]: the logP amounted to 1.23. For the compound `Nc1ccccc1` [ANILINE], the logP is 0.9. Under `CCCCCl` [BUTYL CHLORIDE] stands 2.39; under `CCCc1ccccc1`, 3.68. Consider `CC(C)(C)CO`, for which the logP is 1.36.

Source of the values: ChEMBL document CHEMBL3272317, “Application of SCAP to drug design. 1. Prediction of octanol-water partition coefficients using solvent-dependent conformational analyses” (J Med Chem, 1976).
